pIC50: −log10 of the molar value.
Each compound was assayed against T1, partially purified rat brain farnesyl protein transferase (FPT) (Rattus norvegicus, UniProt Q02293+Q04631) (assay: In vitro enzyme assay: inhibition of Ras-CVLS farnesylation by farnesyl protein transferase (FPT)). Conditions: H-ras (Ras-CVLS) substrate; methods of WO 95/10515 or WO 95/10516.
T1 construct: partially purified rat brain farnesyl protein transferase (FPT); from tissue; host or cells: rat brain
Assay type: biochemical
Method: (§1) 1. In vitro enzyme assays: FPT IC50 (inhibition of farnesyl protein transferase, in vitro enzyme assay) are determined by the methods disclosed in […] or WO 95/10516. […] 2. Cell-based assay. COS IC50 values refer to the COS cells activity inhibition of Ras processing, are determined by the methods disclosed in […] or WO 95/10516.

T1 sequence (Q02293 whole entry, one chain of several): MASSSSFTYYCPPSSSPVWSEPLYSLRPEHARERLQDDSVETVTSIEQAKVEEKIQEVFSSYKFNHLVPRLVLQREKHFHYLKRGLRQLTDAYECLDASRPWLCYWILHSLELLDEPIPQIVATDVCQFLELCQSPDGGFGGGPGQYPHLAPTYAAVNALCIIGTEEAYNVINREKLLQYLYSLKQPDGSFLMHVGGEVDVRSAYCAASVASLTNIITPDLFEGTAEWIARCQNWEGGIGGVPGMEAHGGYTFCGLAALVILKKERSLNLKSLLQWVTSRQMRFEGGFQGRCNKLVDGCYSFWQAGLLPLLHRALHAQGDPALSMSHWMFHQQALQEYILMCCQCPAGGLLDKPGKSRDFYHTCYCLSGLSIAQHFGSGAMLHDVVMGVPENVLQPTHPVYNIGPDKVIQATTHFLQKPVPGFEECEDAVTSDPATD

Going from C/C(=N\OCC(=O)N1CCC([C@H]2c3ncc(Br)cc3CCc3cc(Cl)cc(Br)c32)CC1)c1ccc(Cl)cc1 [Example 8, (+)-1-[[[[(E)-1-(4-chlorophenyl)ethylidene]amino]oxy]acetyl]-4-(3,10-dibromo-8-chloro-6,11-dihydro-5H-benzo[5,6]cyclohepta[1,2-b]pyridin-11(R)-yl)piperidine] to COc1ccc(/C(C)=N/OCC(=O)N2CCC([C@H]3c4ncc(Br)cc4CCc4cc(Cl)cc(Br)c43)CC2)cc1 [Example 3], the pIC50 rises from under 6.74 to 6.74.

Compared with O=C(CO/N=C/c1ccccc1O)N1CCC([C@H]2c3ncc(Br)cc3CCc3cc(Cl)cc(Br)c32)CC1 [Example 7], O=C(CO/N=C/c1cc[n+]([O-])cc1)N1CCC([C@H]2c3ncc(Br)cc3CCc3cc(Cl)cc(Br)c32)CC1 [Example 6] is 2.01 log units higher in pIC50: 6.43 for the first, 8.44 for the second.

Compared with CC(C)=NOCC(=O)N1CCC([C@H]2c3ncc(Br)cc3CCc3cc(Cl)cc(Br)c32)CC1 [Example 2], CC(C)=NOCCC(=O)N1CCC([C@H]2c3ncc(Br)cc3CCc3cc(Cl)cc(Br)c32)CC1 [Example 4, (+)-4-(3,10-dibromo-8-chloro-6,11-dihydro-5H-benzo[5,6]cyclohepta[1,2-b]pyridin-11(R)-yl)-1-[3-[[(1-methylethylidene]amino]oxy]-1-oxopropyl]piperidine] is 0.92 log units lower in pIC50: 8.19 for the first, 7.27 for the second.

First: C/C(=N\OCC(=O)N1CCC([C@H]2c3ncc(Br)cc3CCc3cc(Cl)cc(Br)c32)CC1)c1cccs1 [Example 9, (+)-4-(3,10-dibromo-8-chloro-6,11-dihydro-5H-benzo[5,6]cyclohepta[1,2-b]pyridin-11(R)-yl)-1-[[[[(E)-1-(2-thienyl)ethylidene]amino]oxy]acetyl]piperidine]
Second: CC(=O)NOCC(=O)N1CCC([C@H]2c3ncc(Br)cc3CCc3cc(Cl)cc(Br)c32)CC1 [Example 14, (+)-N-[2-[4-(3,10-dibromo-8-chloro-6,11-dihydro-5H-benzo[5,6]cyclohepta[1,2-b]pyridin-11(R)-yl)-1-piperidinyl]-2-oxoethoxy]acetamide]
The pIC50 of the first is 0.69 log units lower: 6.82 for the first, 7.51 for the second.

O=C(CON=C1CCOCC1)N1CCC([C@H]2c3ncc(Br)cc3CCc3cc(Cl)cc(Br)c32)CC1 [Example 12] and O=C(CON=C1CCSCC1)N1CCC([C@H]2c3ncc(Br)cc3CCc3cc(Cl)cc(Br)c32)CC1 [Example 13] are within 0.2 log units of each other in pIC50: 7.92 for the first, 7.89 for the second.

Going from CC(C)(C)OC(=O)NOCC(=O)N1CCC([C@H]2c3ncc(Br)cc3CCc3cc(Cl)cc(Br)c32)CC1 [Example 5, (+)-1,1-Dimethylethyl-N-[2-[4-(3,10-dibromo-8-chloro-6,11-dihydro-5H-benzo[5,6]cyclohepta[1,2-b]pyridin-11(R)-yl)-1-piperidinyl]-2-oxoethoxy]carbamate] to O=C(CON=C1CCCCC1)N1CCC([C@H]2c3ncc(Br)cc3CCc3cc(Cl)cc(Br)c32)CC1 [Example 10, (+)-4-(3,10-dibromo-8-chloro-6,11-dihydro-5H-benzo[5,6]cyclohepta[1,2-b]pyridin-11(R)-yl)-1-[[[[(cyclohexylidene]amino]]oxy]acetyl]piperidine], the pIC50 rises from 6.77 to 7.46 (0.69 log units). The second is the more potent here.

O=C(CON=C1CCC2(CC1)OCCO2)N1CCC([C@H]2c3ncc(Br)cc3CCc3cc(Cl)cc(Br)c32)CC1 [Example 11] was tested, and the pIC50 was 7.62.

What follows are compounds tested on Ras processing in COS cells (assay: Cell-based assay: inhibition of Ras processing in COS cells). Conditions: not given.
Method: as §1

O=C(CO/N=C/c1cc[n+]([O-])cc1)N1CCC([C@H]2c3ncc(Br)cc3CCc3cc(Cl)cc(Br)c32)CC1 [Example 6] gave a pIC50 of 6.16.
